Drawing on publication PMC12249582, “Ruxolitinib Modulates P-Glycoprotein Function, Delays T Cell Activation, and Impairs CCL19 Chemokine-Directed Migration in Human Cytotoxic T Lymphocytes” (International Journal of Molecular Sciences, 2025), this text covers IC50 for one molecule.

In this assay the target is T1, P-glycoprotein (Pgp/ABCB1) (Homo sapiens, UniProt P08183).
T1 construct: human Pgp stably expressed in NIH-3T3 MDR1 cells (cells and raw membrane preparations)
Put plainly: calcein-AM efflux inhibition in NIH-3T3 MDR1 cells (IC50); vanadate-sensitive ATPase stimulation in Pgp membranes. In kind it is cell-based.

T1 sequence (P08183 whole entry): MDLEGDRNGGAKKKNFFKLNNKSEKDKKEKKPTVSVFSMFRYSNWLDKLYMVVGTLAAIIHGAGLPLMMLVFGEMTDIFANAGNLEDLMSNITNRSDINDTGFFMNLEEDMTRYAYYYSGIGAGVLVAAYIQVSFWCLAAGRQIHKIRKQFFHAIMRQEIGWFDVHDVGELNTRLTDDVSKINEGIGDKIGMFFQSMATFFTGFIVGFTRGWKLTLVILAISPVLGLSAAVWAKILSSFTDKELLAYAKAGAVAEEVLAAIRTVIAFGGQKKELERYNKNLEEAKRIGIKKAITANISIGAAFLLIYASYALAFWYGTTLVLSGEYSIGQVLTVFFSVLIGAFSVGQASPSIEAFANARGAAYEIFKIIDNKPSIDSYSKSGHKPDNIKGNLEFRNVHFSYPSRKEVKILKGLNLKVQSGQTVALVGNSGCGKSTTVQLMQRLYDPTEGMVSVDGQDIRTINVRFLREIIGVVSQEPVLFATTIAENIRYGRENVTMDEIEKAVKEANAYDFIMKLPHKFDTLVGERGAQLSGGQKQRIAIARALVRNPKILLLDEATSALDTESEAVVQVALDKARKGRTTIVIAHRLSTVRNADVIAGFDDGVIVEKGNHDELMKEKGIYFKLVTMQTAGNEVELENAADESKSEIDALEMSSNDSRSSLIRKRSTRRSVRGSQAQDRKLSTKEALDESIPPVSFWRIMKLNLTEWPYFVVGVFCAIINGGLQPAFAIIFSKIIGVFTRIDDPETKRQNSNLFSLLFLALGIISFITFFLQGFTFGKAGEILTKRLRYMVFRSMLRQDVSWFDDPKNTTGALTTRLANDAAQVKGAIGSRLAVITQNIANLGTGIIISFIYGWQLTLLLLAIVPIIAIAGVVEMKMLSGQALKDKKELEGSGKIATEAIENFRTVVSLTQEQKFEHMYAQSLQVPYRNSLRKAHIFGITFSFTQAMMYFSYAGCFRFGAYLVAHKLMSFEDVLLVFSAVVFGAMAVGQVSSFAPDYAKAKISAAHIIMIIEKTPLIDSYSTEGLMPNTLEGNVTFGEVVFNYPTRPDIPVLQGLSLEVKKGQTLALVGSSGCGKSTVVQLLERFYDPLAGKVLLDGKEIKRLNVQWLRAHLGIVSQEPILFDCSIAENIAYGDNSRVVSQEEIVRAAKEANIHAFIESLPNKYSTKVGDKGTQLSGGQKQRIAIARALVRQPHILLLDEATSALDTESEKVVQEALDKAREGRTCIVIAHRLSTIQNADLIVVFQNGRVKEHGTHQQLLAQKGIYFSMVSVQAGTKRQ

For `N#CC[C@H](C1CCCC1)n1cc(-c2ncnc3[nH]ccc23)cn1` [RUX, ruxolitinib], the IC50 is roughly 13 µM.
